Laboratory results reported in ChEMBL document CHEMBL4033709, “Quorum sensing modulators exhibit cytotoxicity in Hodgkin's lymphoma cells and interfere with NF-κB signaling” (Bioorg Med Chem Lett, 2017).
One block for each compound: values may come before it. Activity calls are given as the source filed them. The calls are words filed in the database; no cut-off is given here.

What was measured:
[1] = species: Homo sapiens; assay: (§1) Inhibition of NF-kappaB (unknown origin) expressed in human L428 cells after 2 hrs by luciferase reporter gene assay; assay type: cell-based
[2] = as §1; assay type: cell-based; details: L-428, 2 h
[3] = test system: L-428; assay: Cytotoxicity against human L428 cells after 24 by XTT assay; assay type: functional, cell-based
[4] = test system: L-428; assay: Cytotoxicity against human L428 cells after 48 by XTT assay; assay type: functional, cell-based
[5] = test system: A549; assay: Anti-migratory activity against human A549 cells assessed as reduction in wound closure at 7.94 uM after 48 hrs by wound-scratch assay; assay type: functional, cell-based
[6] = test system: L-428; assay: Inhibition of NFkappaB p50 subunit expression in nuclear fractions of human L428 cells at 2.5 ug/ml after 2 hrs by Western method; assay type: functional, cell-based
[7] = test system: L-428; assay: Inhibition of NFkappaB p65 subunit expression in nuclear fractions of human L428 cells at 2.5 ug/ml after 2 hrs by Western method; assay type: functional, cell-based
[8] = test system: L-428; assay: Inhibition of NFkappaB RelB subunit expression in nuclear fractions of human L428 cells at 2.5 ug/ml after 2 hrs by Western method; assay type: functional, cell-based
[9] = test system: L-428; assay: Inhibition of NFkappaB p50 subunit expression in cytosolic fractions of human L428 cells at 2.5 ug/ml after 2 hrs by Western method; assay type: functional, cell-based
[10] = test system: L-428; assay: Inhibition of NFkappaB p65 subunit expression in cytosolic fractions of human L428 cells at 2.5 ug/ml after 2 hrs by Western method; assay type: functional, cell-based
[11] = test system: L-428; assay: Inhibition of NFkappaB RelB subunit expression in cytosolic fractions of human L428 cells at 2.5 ug/ml after 2 hrs by Western method; assay type: functional, cell-based
[12] = test system: A549; assay: Anti-migratory activity against human A549 cells assessed as reduction in wound closure at 2.6 uM after 48 hrs by wound-scratch assay; assay type: functional, cell-based
[13] = test system: A549; assay: Anti-migratory activity against human A549 cells assessed as reduction in wound closure at 5.6 uM after 48 hrs by wound-scratch assay; assay type: functional, cell-based

SMILES: CCCC(=O)N[C@H]1CCOC1=O
inhibition [1]: Dose-dependent effect

IC50 [2]: 9.9 µM
SMILES: O=C1C=C(Br)/C(=C/Br)O1
inhibition [1]: Dose-dependent effect
IC50 [3]: 5.16 µM
IC50 [4]: 3.05 µM
Activity [5]: Active
inhibition [6]: Active
inhibition [7]: Active
inhibition [8]: Active
inhibition [9]: Active
inhibition [10]: Active
inhibition [11]: Active

IC50 [2]: 12.8 µM
SMILES: O=C(CCCCCCCC(Cl)CN=C=S)CC(=O)N[C@H]1CCOC1=O (some centres undefined)
inhibition [1]: Dose-dependent effect
IC50 [3]: 15.1 µM
IC50 [4]: 18.3 µM
Activity [12]: Active
inhibition [6]: Active
inhibition [7]: Active
inhibition [8]: Active
inhibition [9]: Active
inhibition [10]: Active
inhibition [11]: Active

SMILES: CCCCCCCc1[nH]c2ccccc2c(=O)c1O
inhibition [1]: Dose-dependent effect

SMILES: C#CCCCCCCCCC(=O)CC(=O)N[C@H]1CCOC1=O
inhibition [1]: Dose-dependent effect

SMILES: CCCCCCCCCCCN=C=S
inhibition [1]: Dose-dependent effect

SMILES: O=C(CCCCCCCCCN=C=S)CC(=O)N[C@H]1CCOC1=O
IC50 [2]: 4.1 µM
inhibition [1]: Dose-dependent effect
IC50 [3]: 13.3 µM
IC50 [4]: 12.4 µM
Activity [13]: Active
inhibition [6]: Active
inhibition [7]: Active
inhibition [8]: Active
inhibition [9]: Active
inhibition [10]: Active
inhibition [11]: Active

SMILES: COc1cc(/C=C/C(=O)CC(=O)/C=C/c2ccc(O)c(OC)c2)ccc1O
inhibition [1]: Active

SMILES: CCCCCCCCCC(=O)CC(=O)N[C@H]1CCOC1=O
inhibition [1]: Dose-dependent effect
